Measured values taken from patent US20240124417A1, “COMPOUNDS USEFUL AS IMMUNOMODULATORS” (Bristol-Myers Squibb Company, priority 2019, published 2024).
pIC50: −log10 of the molar value.

Molecular target: T1, PD-1/PD-L1 (Homo sapiens, UniProt Q9NZQ7)
T1 construct: TVMV protease site linker (C); made in house; host or cells: HEK293T cells
Test: PD-1/PD-L1 Homogenous Time-Resolved Fluorescence (HTRF) binding assay
Conditions: PD-L1-His 10 nM, PD-1-Ig 20 nM
Excerpt: The ability of the compounds of the invention to bind to PD-L1 was investigated using a PD-1/PD-L1 Homogenous Time-Resolved Fluorescence (HTRF) binding assay.
Homogenous Time-Resolved Fluorescence (HTRF) binding assay.
The interaction of PD-1 and PD-L1 can be assessed using soluble, purified preparations of the extracellular domains of the two proteins. The PD-1 and PD-L1 protein extracellular domains were expressed as fusion proteins with detection tags, for PD-1, the tag was the Fc portion of Immunoglobulin (PD-1-Ig) and for PD-L1 it was the 6 histidine motif (PD-L1-His). All binding studies were performed in an HTRF assay buffer consisting of dPBS supplemented with 0.1% […] bovine serum albumin and 0.05% (v/v) Tween-20. For the h/PD-L1-His binding assay, inhibitors were pre-incubated with PD-L1-His (10 nM final) for 15 m in 4 μl of assay buffer, followed by addition of PD-1-Ig (20 nM final) in 1 μl of assay buffer and further incubation for 15 m. HTRF detection was achieved using europium crypate-labeled anti-Ig (1 nM final) and allophycocyanin (APC) labeled anti-His (20 nM final). Antibodies were diluted in HTRF detection buffer and 5 μl was dispensed on top of the binding reaction. […] Additional binding assays were established between the human proteins PD-1-Ig/PD-L2-His (20 & 5 nM, respectively) and CD80-His/PD-L1-Ig (100 & 10 nM, respectively). […]

T1 sequence (Q9NZQ7 18-239): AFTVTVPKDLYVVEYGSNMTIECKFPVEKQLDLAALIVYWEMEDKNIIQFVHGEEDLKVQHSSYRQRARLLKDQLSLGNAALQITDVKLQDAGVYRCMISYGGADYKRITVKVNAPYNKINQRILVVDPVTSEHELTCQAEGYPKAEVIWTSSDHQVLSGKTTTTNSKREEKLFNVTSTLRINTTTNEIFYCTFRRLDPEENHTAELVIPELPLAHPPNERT

pIC50 | SMILES
8.72 | Cc1c(COc2cc(OCc3cncc(C#N)c3)c(CN3CCC(c4nnn[nH]4)C3)cc2Cl)cccc1-c1cccc(OCCCN2CC[C@@H](O)C2)c1C (stereo partly drawn) [Example 1017, 5-((2-((3-(1H-Tetrazol-5-yl)pyrrolidin-1-yl)methyl)-4-chloro-5-((3′-(3-((R)-3-hydroxy-pyrrolidin-1-yl)propoxy)-2,2′-dimethyl-[1,1′-biphenyl]-3-yl)methoxy)phenoxy)methyl)-nicotinonitrile]
8.85 | Cc1c(COc2cc(OCc3cncc(C#N)c3)c(CNCc3ccnc(C#N)n3)cc2Cl)cccc1-c1cccc(OCCCN2CCC(O)(CO)CC2)c1Cl [Example 2044, 4-(((5-chloro-4-((2′-chloro-3′-(3-(4-hydroxy-4-(hydroxymethyl)piperidin-1-yl)propoxy)-2-methyl-[1,1′-biphenyl]-3-yl)methoxy)-2-((5-cyanopyridin-3-yl)methoxy)benzyl)amino)methyl)pyrimidine-2-carbonitrile]
8.74 | Cc1c(COc2cc(OCc3cncc(C#N)c3)c(CN3CCCCC3c3cc[nH]n3)cc2Cl)cccc1-c1cccc(OCC2CCCN(C)C2)c1Cl (stereo not shown) [Example 1021, 5-((2-((2-(1H-Pyrazol-3-yl)piperidin-1-yl)methyl)-4-chloro-5-((2′-chloro-2-methyl-3′-((1-methyl-piperidin-3-yl)methoxy)-[1,1′-biphenyl]-3-yl)methoxy)phenoxy)methyl)-nicotinonitrile]
8.80 | Cc1cc(CN(C)Cc2cc(Cl)c(OCc3cccc(-c4cccc(OCCCN5CC[C@@H](O)C5)c4C)c3C)cc2OCc2cncc(C#N)c2)[nH]n1 [Example 2025, (R)-5-((4-chloro-5-((3′-(3-(3-hydroxypyrrolidin-1-yl)propoxy)-2,2′-dimethyl-[1,1′-biphenyl]-3-yl)methoxy)-2-((methyl((3-methyl-1H-pyrazol-5-yl)methyl)amino)methyl)phenoxy)methyl)nicotinonitrile]
9.70 | Cc1c(COc2cc(OCc3cncc(C#N)c3)c(CNCc3cc[nH]n3)cc2Cl)cccc1-c1cccc(OCCCN2CC[C@@H](O)C2)c1C [Example 2001, (R)-5-((2-((((1H-pyrazol-3-yl)methyl)amino)methyl)-4-chloro-5-((3′-(3-(3-hydroxypyrrolidin-1-yl)propoxy)-2,2′-dimethyl-[1,1′-biphenyl]-3-yl)methoxy)phenoxy)methyl)nicotinonitrile]
8.35 | COCc1noc(CN(C)Cc2cc(Cl)c(OCc3cccc(-c4cccc(OCCCN5CC[C@@H](O)C5)c4C)c3C)cc2OCc2cncc(C#N)c2)n1 [Example 2560, (R)-5-((4-chloro-5-((3′-(3-(3-hydroxypyrrolidin-1-yl)propoxy)-2,2′-dimethyl-[1,1′-biphenyl]-3-yl)methoxy)-2-((((3-(methoxymethyl)-1,2,4-oxadiazol-5-yl)methyl)(methyl)amino)methyl)phenoxy)methyl)nicotinonitrile]
8.68 | Cc1c(COc2cc(OCc3cncc(C#N)c3)c(CNCc3ccccn3)cc2Cl)cccc1-c1cccc(OCCCN2CC[C@@H](O)C2)c1C [Example 2017, (R)-5-((4-chloro-5-((3′-(3-(3-hydroxypyrrolidin-1-yl)propoxy)-2,2′-dimethyl-[1,1′-biphenyl]-3-yl)methoxy)-2-(((pyridin-2-ylmethyl)amino)methyl)phenoxy)methyl)nicotinonitrile]
8.82 | Cc1c(COc2cc(OCc3cncc(C#N)c3)c(CN3CCCC3c3ccn[nH]3)cc2Cl)cccc1-c1cccc(OCC2CCCN(C)C2)c1Cl (stereo not shown) [Example 1026, 5-((2-((2-(1H-Pyrazol-5-yl)pyrrolidin-1-yl)methyl)-4-chloro-5-((2′-chloro-2-methyl-3′-((1-methylpiperidin-3-yl)methoxy)-[1,1′-biphenyl]-3-yl)methoxy)phenoxy)methyl)-nicotinonitrile]
9.70 | Cc1c(COc2cc(OCc3cncc(C#N)c3)c(CNCCc3c[nH]cn3)cc2Cl)cccc1-c1cccc(OCC2CCCN(C)C2)c1Cl (stereo not shown) [Example 2580, 5-((2-(((2-(1H-imidazol-4-yl)ethyl)amino)methyl)-4-chloro-5-((2′-chloro-2-methyl-3′-((1-methylpiperidin-3-yl)methoxy)-[1,1′-biphenyl]-3-yl)methoxy)phenoxy)methyl)nicotinonitrile]
8.51 | Cc1cc(CNCc2cc(Cl)c(OCc3cccc(-c4cccc(OCCCN5CC[C@@H](O)C5)c4C)c3C)cc2OCc2cncc(C#N)c2)no1 [Example 2528, (R)-5-((4-chloro-5-((3′-(3-(3-hydroxypyrrolidin-1-yl)propoxy)-2,2′-dimethyl-[1,1′-biphenyl]-3-yl)methoxy)-2-((((5-methylisoxazol-3-yl)methyl)amino)methyl)phenoxy)methyl)nicotinonitrile]
8.70 | Cc1c(COc2cc(OCc3cncc(C#N)c3)c(CN3CCC4C(C3)C(CO)=NN4C)cc2Cl)cccc1-c1cccc(OCC2CCCN(C)C2)c1Cl (stereo not shown) [Example 1029, 5-((4-Chloro-5-((2′-chloro-2-methyl-3′-((1-methylpiperidin-3-yl)methoxy)-[1,1′-biphenyl]-3-yl)methoxy)-2-((3-(hydroxymethyl)-1-methyl-1,3a,4,6,7,7a-hexahydro-5H-pyrazolo[4,3-c]pyridin-5-yl)methyl)phenoxy)methyl)nicotinonitrile]
8.28 | Cc1c(COc2cc(OCc3cncc(C#N)c3)c(CN3CCCCC3c3nc(=O)[nH][nH]3)cc2Cl)cccc1-c1cccc(OCCCN2CC[C@@H](O)C2)c1C (stereo partly drawn) [Example 1010, 5-((4-Chloro-5-((3′-(3-((R)-3-hydroxypyrrolidin-1-yl)propoxy)-2,2′-dimethyl-[1,1′-biphenyl]-3-yl)methoxy)-2-((2-(5-oxo-2,5-dihydro-1H-1,2,4-triazol-3-yl)piperidin-1-yl)-methyl)phenoxy)methyl)nicotinonitrile]
8.89 | Cc1c(COc2cc(OCc3cncc(C#N)c3)c(CN(C)CC(C)c3nnn[nH]3)cc2Cl)cccc1-c1cccc(OCCCNC[C@H](O)CO)c1Cl (stereo partly drawn) [Example 1035, 5-((2-(((2-(1H-Tetrazol-5-yl)propyl)(methyl)amino)methyl)-4-chloro-5-((2′-chloro-3′-(3-(((S)-2,3-dihydroxypropyl)amino)propoxy)-2-methyl-[1,1′-biphenyl]-3-yl)methoxy)-phenoxy)methyl)nicotinonitrile]
8.64 | Cc1c(COc2cc(OCc3cncc(C#N)c3)c(CN(C)Cc3cccnc3)cc2Cl)cccc1-c1cccc(OCCCN2CC[C@@H](O)C2)c1C [Example 2501, (R)-5-((4-chloro-5-((3′-(3-(3-hydroxypyrrolidin-1-yl)propoxy)-2,2′-dimethyl-[1,1′-biphenyl]-3-yl)methoxy)-2-((methyl(pyridin-3-ylmethyl)amino)methyl)phenoxy)methyl)nicotinonitrile]
8.21 | Cc1c(COc2cc(OCc3cncc(C#N)c3)c(CN(C)CCc3nc4ccccc4[nH]3)cc2Cl)cccc1-c1cccc(OCCCN2CC[C@@H](O)C2)c1C [Example 2508, (R)-5-((2-(((2-(1H-benzo[d]imidazol-2-yl)ethyl)(methyl)amino)methyl)-4-chloro-5-((3′-(3-(3-hydroxypyrrolidin-1-yl)propoxy)-2,2′-dimethyl-[1,1′-biphenyl]-3-yl)methoxy)phenoxy)methyl)nicotinonitrile]
8.82 | Cc1n[nH]c(C)c1CNCc1cc(Cl)c(OCc2cccc(-c3cccc(OCCCN4CC[C@@H](O)C4)c3C)c2C)cc1OCc1cncc(C#N)c1 [Example 2570, (R)-5-((4-chloro-2-((((3,5-dimethyl-1H-pyrazol-4-yl)methyl)amino)methyl)-5-((3′-(3-(3-hydroxypyrrolidin-1-yl)propoxy)-2,2′-dimethyl-[1,1′-biphenyl]-3-yl)methoxy)phenoxy)methyl)nicotinonitrile]
9.70 | Cc1c(COc2cc(OCc3cncc(C#N)c3)c(CN(C)CCc3ncn[nH]3)cc2Cl)cccc1-c1cccc(OCCCN2CC[C@@H](O)C2)c1C [Example 2509, (R)-5-((2-(((2-(1H-1,2,4-triazol-5-yl)ethyl)(methyl)amino)methyl)-4-chloro-5-((3′-(3-(3-hydroxypyrrolidin-1-yl)propoxy)-2,2′-dimethyl-[1,1′-biphenyl]-3-yl)methoxy)phenoxy)methyl)nicotinonitrile]
8.44 | Cc1c(COc2cc(OCc3cncc(C#N)c3)c(CN3CCC(c4cc[nH]n4)C3)cc2Cl)cccc1-c1cccc(OCCCN2CC[C@@H](O)C2)c1C (stereo partly drawn) [Example 2513, 5-((2-((3-(1H-pyrazol-3-yl)pyrrolidin-1-yl)methyl)-4-chloro-5-((3′-(3-((R)-3-hydroxypyrrolidin-1-yl)propoxy)-2,2′-dimethyl-[1,1′-biphenyl]-3-yl)methoxy)phenoxy)methyl)nicotinonitrile]
8.19 | Cc1c(COc2cc(OCc3cncc(C#N)c3)c(CNCc3cc4ccccn4n3)cc2Cl)cccc1-c1cccc(OCCCN2CC[C@@H](O)C2)c1C [Example 2537, (R)-5-((4-chloro-5-((3′-(3-(3-hydroxypyrrolidin-1-yl)propoxy)-2,2′-dimethyl-[1,1′-biphenyl]-3-yl)methoxy)-2-(((pyrazolo[1,5-a]pyridin-2-ylmethyl)amino)methyl)phenoxy)methyl)nicotinonitrile]
